The assay has as its system cultured hair follicles. The assay is described as follows: Radioactive cysteine incorporation in cultured hair follicles as a measure of hair growth. It is filed as cell-based, mice. As for the experimental part:
In this system, follicles were dissected from 4 day old mice. Healthy follicles were selected visually and cultured in serum free media supplemented with insulin, transferrin and selenium. The activity of compositions comprising one or more of the test compounds in stimulating hair growth was measured by radioactive cysteine labeling of the newly formed hair proteins and expressed as a percentage of the activity of a control (i.e., no test compounds present).

In the case of “Glycyl-L-Histidyl-L-Lysyl-L-Valyl-L-Phenylalanyl-L-Valine: Copper Complex”, the “radioactive cysteine incorporation relative to control (result in words)” value (at the concentrations used (Minoxidil 1 mM, peptide copper complex 10 μM)) is recorded as “stimulated radioactive cysteine incorporation above that of the control”. The “% of Cysteine Incorporation of Control (no addition)” value (peptide copper complex 10 μM, follicles from 4 day old mice, serum free media) was 113%.
